Test results taken from US10457709B2, “Antimicrobial peptides, their variants and uses” (priority 2015, dated 2019).
Ends that are not written are not given here.

B1: En-MAP1: protein of 549 amino acids from an endophyte of Empetrum nigrum, GenBank accession number KC466596 (protein, listed as Empetrum nigrum)
chain: MRLVAHPVPDAPLYALMIKACSMGIPQPNDNLWKPRNPLLAKEEKTSKRGRTAPDTERALDLFREMTLRYNIRPTAEVYTAIIAACVKRDDMYDKGFGLFKKMVELERNRMSSEGHDSTSFAPTRATYNALLRGCARNKDLLRARWILAEMLRTAQAKWQEFMEKSKKGEEGVQEWELLEVEEMRPDTNTMAFLFYTYASHTTSSKAVPETEGKKELEGKAEERASEVTSVSPVSEPPEPMDESKLVYSLPTSSQAILREVTSLLDRIKSDQGQQSNLLSSVQINSKLLNSYIAVLSAHCRSSQVVERISEVVVGTKENPKSLFEETGTSVNGYTCFTVIDACGMMEHSPDTYHLACEMWQRWLSLVENATFHRENPLKAKEIGLDSRTISDCWSAMIRLHAKYNQVDEAMKLVHEFARLYPPASLFNSLTFEPSSTSSSSLSPRKGVQEISPLFSSTSLTHSIRGRDISRIQNTMSQDPTLQFRAVQILHLRLVELETRPKDLAYLSWLLKSYEHQLQPKRPKSLQGDLFTSRQAAYNRIVQQRTSSR

Legend:
[1] = test system: Escherichia coli (ATCC 25922); assay: microbe, parasite or virus in culture; assay type: cell-based; settings: ATCC 25922
Experimental: (§1) Minimum inhibition concentrations (MICs) were determined against Escherichia coli (ATCC 25922), Staphylococcus aureus (ATCC 25923), Klebsiella pneumoniae (ATCC 10031) and Pseudomonas aeruginosa (ATCC 27853). Also clinical strains of E. coli, K. pneumoniae, E. cloacae, P. aeruginosa, Serratia marcescens, Proteus mirabilis, S. pneumoniae, Acinetobacter baumannii, A. johnsonii and S. aureus were used for MICs assays. Additionally, clinical strains of yeast including Candida albicans, C. glabrata, C. parapsilosis and C. quillermondiae were used. The susceptibility of these microorganisms to Chain peptides were determined using micro broth dilution assay. Colonies of the respective microorganism from Muller Hinton (MH) agar plates incubated overnight were suspended in MH broth media and final concentration of microorganism was adjusted to 5.0×10^5 cfu/ml. An aliquot of 10 μl of each Chain peptide, or gentamicin, tetracycline as reference antibiotics were added in differing concentrations along with 90 μl of bacterial suspension to 96 well polypropylene plates and incubated at 37° C. for 20 to 24 hours. Concentrations of Chain peptides and reference antibiotics ranged from 0.125 to 128 μg/ml and the MICs were recorded as the lowest concentration with no visual growth of bacteria. Similarly, antifungal MICs were tested in Potato dextrose broth.

[2] = test system: Klebsiella pneumoniae (ATCC 10031); assay: microbe, parasite or virus in culture; assay type: cell-based; settings: ATCC 10031
Experimental: as §1

[3] = test system: Pseudomonas aeruginosa (ATCC 27853); assay: microbe, parasite or virus in culture; assay type: cell-based; settings: ATCC 27853
Experimental: as §1

[4] = test system: Staphylococcus aureus (ATCC 25923); assay: microbe, parasite or virus in culture; assay type: cell-based; settings: ATCC 25923
Experimental: as §1

[5] = test system: E. coli; settings: ATCC 25922
Experimental: as §1

[6] = test system: S. aureus; settings: ATCC 25923
Experimental: as §1

[7] = test system: S. aureus; assay: Antibacterial activity analysis of En-MAP1 protein; assay type: cell-based, Staphylococcus aureus
Experimental: Both folded and unfolded proteins were tested for antibacterial activity against S. aureus by pipetting 10 μg of protein on the S. aureus culture on an LB plate. The activity was also tested in folded and unfolded protein digested with trypsin in 0.01% acetic acid at concentrations of 30 and 60 μg/ml.
The gene En-MAP1 was then cloned into the expression plasmid pET23(b) to analyze whether the antibacterial activity was due to the protein itself. The resulting construct pET23(b)-FosS1A contained the En-MAP1 gene in-frame. When transformed into E. coli expression strain BL21 (DE3) pLyseS and BL21 (DE3) pRARE, a protein of approximately 63 kDa (predicted mass 63.3 kDa) was produced in the cell extracts of induced, but not in the uninduced cultures. The resulting protein includes the amino acid sequence […]- prior to the first amino acid of the protein sequence. The protein was expressed in both strains as inclusion bodies and they were purified and folded in a His-Trap column, resulting in about ˜1 mg of pure folded protein.

Row | Molecule | Minimum inhibitory concentration, Escherichia coli (ATCC 25922) [1] [µg/mL] | Minimum inhibitory concentration, Klebsiella pneumoniae (ATCC 10031) [2] [µg/mL] | Minimum inhibitory concentration, Pseudomonas aeruginosa (ATCC 27853) [3] [µg/mL] | Minimum inhibitory concentration, Staphylococcus aureus (ATCC 25923) [4] [µg/mL] | Minimal inhibitory concentration (MIC), E. coli [5] [µM] | Minimal inhibitory concentration (MIC), S. aureus [6] [µM] | Antibacterial activity against S. aureus ([7]; expressed, folded protein) | Antibacterial activity against S. aureus after trypsin digestion ([7]; folded full protein digested with trypsin, data not shown) | Antibacterial activity against S. aureus after trypsin digestion ([7]; trypsin digest of the unfolded protein)
1 | NRIVQQRTSSR [Chain200] | >128 | >128 | >128 | >128 | 95 | 95 |  |  | 
2 | B1 |  |  |  |  |  |  | no activity was observed | antibacterial activity was observed | No activity was detected
